From patent US20010051654A1, “Treatment of inflammatory and autoimmune diseases” (priority 1997, published 2001) come the findings set out here.

Series [1] relates to 20 S proteasome from rabbit reticulocytes. Briefly: Chymotryptic and tryptic activities of purified 20 S proteasome from rabbit reticulocytes.
Method: Chymotryptic and tryptic assays were performed as described in Examples 3 and 5 at increasing concentrations of the proteasome inhibitor 1.
Details of series [2]: species or system Sprague-Dawley rats. Conditions: rat, in vivo, iv. The method, then:
A single dose intravenous pharmacokinetics study with N-(pyrazine)carbonyl-L-phenylalanine-L-leucine boronic acid (1) was conducted in Sprague-Dawley rats (140 to 280 g). Animals were assigned to 3 groups (6/sex in Groups 1 and 2; 9/sex in Group 3). Animals in groups 1, 2, and 3 received 0.03, 0.1 or 0.3 mg/kg of 1, respectively, in the same dose volume.
Blood samples (approximately 1.0 mL) were collected from the jugular vein of animals pre-dose and at approximately 10 and 30 min and 1, 3 and 24 h post-dose on Day 1.

In series [3] the test system is 20 S proteasome. Nature of the series: Chymotryptic to tryptic activity ratio assay, human samples. It is filed as biochemical. An excerpt: βt=activation factor determined upon titration of the proteasome inhibitor. For the proteasome inhibitor 1, βt=1.28 in human samples.

With `CC(C)C[C@H](NC(=O)[C@H](Cc1ccccc1)NC(=O)c1cnccn1)B(O)O` [Compound 1, N-(pyrazine)carbonyl-L-phenylalanine-L-leucine boronic acid], the “βc (factor for chymotryptic activity of the E•I complex; 0 = total inhibition)” value in series [1] was 0. In series [1] (increasing concentrations of 1), the “chymotryptic activity (FIG. 17)” value is listed as “fully inhibits” and the “tryptic activity (FIG. 17)” value is “activation”. The “βt (activation factor of tryptic activity)” value in series [1] (purified 20 S proteasome from rabbit reticulocytes, fit, FIG. 18) is 1.38±0.05. Also, in series [2], the “clearance from the blood” value is given as “rapidly cleared”. Also, the “time to peak concentration (Tmax)” value in series [2] (0.3 mg/kg) is recorded as about 10 min. Also, the “βt (activation factor determined upon titration of the proteasome inhibitor)” value in series [3] is given as 1.28.
